Our source for the T/C values is PubChem BioAssay AID248 (DTP/NCI, 2004).

Inconclusive results and toxic doses are left out.

The experiment has as its system L1210 leukemia ip in BDF1 mice, survival T/C. The experiment can be described thus: NCI In Vivo Anticancer Drug Screen. Data for tumor model L1210 Leukemia (intraperitoneal) in B6D2F1 (BDF1) mice. Particulars: endpoint: mean survival time, higher = longer survival. A digest of the protocol: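 Transplantable tumor model; survival measured in treated vs vehicle control mice. Value = treated/control.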

Setting [1] is: dose: 100.0 mg/kg/injection, schedule: Q04DX003 (ip), vehicle: saline with Tween-80.
[2] abbreviates: dose: 200.0 mg/kg/injection, schedule: Q01DX009 (ip), vehicle: saline.
Where [3] appears, read: dose: 200.0 mg/kg/injection, schedule: Q04DX003 (ip), vehicle: saline with Tween-80.
Setting [4] is: dose: 100.0 mg/kg/injection, schedule: Q01DX001 (ip), vehicle: Klucel (hydroxypropylcellulose) (HPC).
[5] abbreviates: dose: 400.0 mg/kg/injection, schedule: Q01DX001 (ip), vehicle: Klucel (hydroxypropylcellulose) (HPC).

Consider `COc1ccc(NC(=O)c2ccco2)cc1`, for which the T/C was 123 % of control (dose: 100.0 mg/kg/injection, schedule: Q04DX002 (ip), vehicle: Klucel (hydroxypropylcellulose) (HPC)); 112 % of control (dose: 200.0 mg/kg/injection, schedule: Q04DX002 (ip), vehicle: Klucel (hydroxypropylcellulose) (HPC)); 123 % of control (dose: 400.0 mg/kg/injection, schedule: Q04DX002 (ip), vehicle: Klucel (hydroxypropylcellulose) (HPC)).

Consider `NC(N)=NC(CC(=O)O)C(=O)O` (stereo unspecified), for which the T/C is 92 % of control (dose: 100.0 mg/kg/injection, schedule: Q01DX Z (ip), vehicle: methylcellulose (MC)) and 92 % of control (dose: 200.0 mg/kg/injection, schedule: Q01DX Z (ip), vehicle: methylcellulose (MC)).

As for `CN(C)N=Nc1c(Cl)cc(Cl)cc1C(N)=O`, the T/C is, setting by setting: (dose: 100.0 mg/kg/injection, schedule: Q01DX001 (ip), vehicle: saline with Tween-80) 108 % of control; (dose: 100.0 mg/kg/injection, schedule: Q01DX009 (ip), vehicle: saline with Tween-80) 111 % of control; under setting [1], 106 % of control; (dose: 133.0 mg/kg/injection, schedule: Q01DX009 (ip), vehicle: saline with Tween-80) 123 % of control; (dose: 200.0 mg/kg/injection, schedule: Q01DX001 (ip), vehicle: saline with Tween-80) 111 % of control; (dose: 200.0 mg/kg/injection, schedule: Q01DX009 (ip), vehicle: saline with Tween-80) 165 % of control. For the same compound, the T/C is, setting by setting: under setting [2], 115 % of control; under setting [3], 110 % of control; (dose: 300.0 mg/kg/injection, schedule: Q01DX009 (ip), vehicle: saline with Tween-80) 150 % of control; (dose: 300.0 mg/kg/injection, schedule: Q01DX009 (ip), vehicle: saline) 100 % of control; (dose: 400.0 mg/kg/injection, schedule: Q01DX001 (ip), vehicle: saline with Tween-80) 117 % of control.

For `O=C(Nc1ccc(C2=NCCN2)cc1)C(=O)Nc1ccc(C2=NCCN2)cc1`, the T/C reads like this: (dose: 15.0 mg/kg/injection, schedule: Q01DX Z (ip), vehicle: saline) 101 % of control; (dose: 30.0 mg/kg/injection, schedule: Q01DX Z (ip), vehicle: saline) 118 % of control; (dose: 60.0 mg/kg/injection, schedule: Q01DX Z (ip), vehicle: saline) 124 % of control.

Consider `Cc1ccc(S(=O)(=O)N(CCCc2c(C)nc(N)nc2Cl)c2ccccc2)cc1`, for which the T/C is 86 % of control under setting [4] and 93 % of control under setting [5].

With `Cc1cc2c(c(Cl)n1)C(=O)OC2=O`, the T/C (dose: 75.0 mg/kg/injection, schedule: Q01DX001 (ip), vehicle: other) was 95 % of control; the T/C (dose: 150.0 mg/kg/injection, schedule: Q01DX001 (ip), vehicle: other) was 95 % of control; the T/C (dose: 300.0 mg/kg/injection, schedule: Q01DX001 (ip), vehicle: other) is 103 % of control.

Regarding `CC(C=O)C=O`, the T/C under setting [4] is 91 % of control; the T/C (dose: 200.0 mg/kg/injection, schedule: Q01DX001 (ip), vehicle: Klucel (hydroxypropylcellulose) (HPC)) was 88 % of control; the T/C under setting [5] was 89 % of control.

As for `CCN(CC)c1ccc(N=Nc2cc(Cl)ccc2Cl)c(NC(=O)CCC(=O)O)c1`, the T/C under setting [1] is 96 % of control; the T/C under setting [3] was 96 % of control; the T/C (dose: 400.0 mg/kg/injection, schedule: Q04DX003 (ip), vehicle: saline with Tween-80) is 95 % of control.

`CC(=O)OCC(=O)[C@@]1(O)CC[C@H]2[C@@H]3CCC4=CC(=O)CC[C@]4(C)[C@H]3C(=O)C[C@@]21C`: the T/C reads like this: (dose: 12.5 mg/kg/injection, schedule: Q01DX015 (sc), vehicle: steriod suspending solution) 102 % of control; (dose: 25.0 mg/kg/injection, schedule: Q01DX015 (sc), vehicle: steriod suspending solution) 100 % of control; (dose: 50.0 mg/kg/injection, schedule: Q01DX015 (sc), vehicle: steriod suspending solution) 100 % of control; (dose: 100.0 mg/kg/injection, schedule: Q01DX001 (sc), vehicle: steriod suspending solution) 101 % of control; (dose: 100.0 mg/kg/injection, schedule: Q01DX015 (sc), vehicle: steriod suspending solution) 107 % of control; (dose: 100.0 mg/kg/injection, schedule: Q04DX003 (sc), vehicle: steriod suspending solution) 108 % of control. The T/C was 92 % of control (dose: 200.0 mg/kg/injection, schedule: Q01DX001 (sc), vehicle: steriod suspending solution); 110 % of control (dose: 200.0 mg/kg/injection, schedule: Q01DX015 (sc), vehicle: steriod suspending solution); 102 % of control (dose: 200.0 mg/kg/injection, schedule: Q04DX003 (sc), vehicle: steriod suspending solution); 111 % of control (dose: 400.0 mg/kg/injection, schedule: Q01DX001 (sc), vehicle: steriod suspending solution); 104 % of control (dose: 400.0 mg/kg/injection, schedule: Q01DX015 (sc), vehicle: steriod suspending solution); 98 % of control (dose: 400.0 mg/kg/injection, schedule: Q04DX003 (sc), vehicle: steriod suspending solution).

Consider `COC(=O)C1C2C3CC(C4CC43)C12` (stereo unspecified), for which the T/C reads like this: (dose: 100.0 mg/kg/injection, schedule: Q01DX009 (ip), vehicle: saline) 92 % of control; (dose: 100.0 mg/kg/injection, schedule: Q04DX003 (ip), vehicle: saline) 93 % of control; under setting [2], 92 % of control; (dose: 200.0 mg/kg/injection, schedule: Q04DX003 (ip), vehicle: saline) 107 % of control; (dose: 400.0 mg/kg/injection, schedule: Q01DX009 (ip), vehicle: saline) 96 % of control; (dose: 400.0 mg/kg/injection, schedule: Q04DX003 (ip), vehicle: saline) 96 % of control.

As for `COC(=O)c1oc2cc(Cl)cnc2c1C(=O)OC`, the T/C was 97 % of control (dose: 100.0 mg/kg/injection, schedule: Q04DX002 (ip), vehicle: saline with Tween-80); 97 % of control (dose: 200.0 mg/kg/injection, schedule: Q04DX002 (ip), vehicle: saline with Tween-80); 94 % of control (dose: 400.0 mg/kg/injection, schedule: Q04DX002 (ip), vehicle: saline with Tween-80).

`O=[N+]([O-])c1ccc(I)c(F)c1`: the T/C is 100 % of control (dose: 100.0 mg/kg/injection, schedule: Q04DX003 (ip), vehicle: Klucel (hydroxypropylcellulose) (HPC)); 100 % of control (dose: 200.0 mg/kg/injection, schedule: Q04DX003 (ip), vehicle: Klucel (hydroxypropylcellulose) (HPC)); 104 % of control (dose: 400.0 mg/kg/injection, schedule: Q04DX003 (ip), vehicle: Klucel (hydroxypropylcellulose) (HPC)).

Turning to `CNc1cc(C(C)C)ccc1C`, the T/C is, setting by setting: (dose: 12.5 mg/kg/injection, schedule: Q01DX009 (ip), vehicle: Klucel (hydroxypropylcellulose) (HPC)) 102 % of control; (dose: 25.0 mg/kg/injection, schedule: Q01DX009 (ip), vehicle: Klucel (hydroxypropylcellulose) (HPC)) 96 % of control; (dose: 50.0 mg/kg/injection, schedule: Q01DX009 (ip), vehicle: Klucel (hydroxypropylcellulose) (HPC)) 113 % of control; (dose: 100.0 mg/kg/injection, schedule: Q01DX009 (sc), vehicle: olive oil, sesame oil, peanut oil) 114 % of control; (dose: 100.0 mg/kg/injection, schedule: Q04DX003 (sc), vehicle: olive oil, sesame oil, peanut oil) 108 % of control; (dose: 200.0 mg/kg/injection, schedule: Q01DX009 (sc), vehicle: olive oil, sesame oil, peanut oil) 105 % of control. Further, the T/C was 105 % of control (dose: 200.0 mg/kg/injection, schedule: Q04DX003 (sc), vehicle: olive oil, sesame oil, peanut oil); 110 % of control (dose: 400.0 mg/kg/injection, schedule: Q01DX009 (sc), vehicle: olive oil, sesame oil, peanut oil); 103 % of control (dose: 400.0 mg/kg/injection, schedule: Q04DX003 (sc), vehicle: olive oil, sesame oil, peanut oil).

Consider `CN(C)C(=O)Sc1cc(Cl)c(S(=O)(=O)F)cc1Cl`, for which the T/C by setting is: (dose: 100.0 mg/kg/injection, schedule: Q01DX009 (ip), vehicle: Klucel (hydroxypropylcellulose) (HPC)) 97 % of control; (dose: 200.0 mg/kg/injection, schedule: Q01DX009 (ip), vehicle: Klucel (hydroxypropylcellulose) (HPC)) 100 % of control; (dose: 400.0 mg/kg/injection, schedule: Q01DX009 (ip), vehicle: Klucel (hydroxypropylcellulose) (HPC)) 90 % of control.
